Assay results published in PubChem BioAssay AID248 (DTP/NCI, 2004).
Where “and” joins values, the source holds several entries; their conditions need not be identical. Equal entries are not always repeated. Inconclusive results and toxic doses are left out. Rule as the data show it: active = T/C of 150% or more; inactive = T/C below 125%.

System: L1210 leukemia ip in BDF1 mice, survival T/C
Test: NCI In Vivo Anticancer Drug Screen. Data for tumor model L1210 Leukemia (intraperitoneal) in B6D2F1 (BDF1) mice
Conditions: endpoint: mean survival time, higher = longer survival
In short: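 Each compound was tested against a transplantable tumor grown in mice. The endpoint was survival, with treated animals benchmarked against vehicle controls as a simple ratio.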

[1] = dose: 100.0 mg/kg/injection, schedule: Q04DX002 (ip), vehicle: Klucel (hydroxypropylcellulose) (HPC)
[2] = dose: 200.0 mg/kg/injection, schedule: Q04DX002 (ip), vehicle: Klucel (hydroxypropylcellulose) (HPC)
[3] = dose: 400.0 mg/kg/injection, schedule: Q04DX002 (ip), vehicle: Klucel (hydroxypropylcellulose) (HPC)
[4] = dose: 100.0 mg/kg/injection, schedule: Q04DX003 (ip), vehicle: Klucel (hydroxypropylcellulose) (HPC)
[5] = dose: 200.0 mg/kg/injection, schedule: Q04DX003 (ip), vehicle: Klucel (hydroxypropylcellulose) (HPC)
[6] = dose: 25.0 mg/kg/injection, schedule: Q01DX009 (ip), vehicle: saline
[7] = dose: 50.0 mg/kg/injection, schedule: Q01DX009 (ip), vehicle: saline
[8] = dose: 100.0 mg/kg/injection, schedule: Q01DX009 (ip), vehicle: saline
[9] = dose: 100.0 mg/kg/injection, schedule: Q04DX003 (ip), vehicle: saline
[10] = dose: 200.0 mg/kg/injection, schedule: Q04DX003 (ip), vehicle: saline
[11] = dose: 400.0 mg/kg/injection, schedule: Q04DX003 (ip), vehicle: saline
[12] = dose: 100.0 mg/kg/injection, schedule: Q01DX009 (ip), vehicle: saline with Tween-80
[13] = dose: 200.0 mg/kg/injection, schedule: Q01DX009 (ip), vehicle: saline with Tween-80
[14] = dose: 400.0 mg/kg/injection, schedule: Q01DX009 (ip), vehicle: saline with Tween-80

Measured: T/C

CC12C=CC(=O)C=C1CCC1C2C(O)CC2(C)C1CCC2(O)C(=O)CSc1ncnc2nc[nH]c12 (configuration not stated)
inactive: dose: 60.0 mg/kg/injection, schedule: Q01DX015 (ip), vehicle: saline 92 % of control | dose: 90.0 mg/kg/injection, schedule: Q01DX015 (ip), vehicle: saline 100 % of control | dose: 100.0 mg/kg/injection, schedule: Q01DX001 (sc), vehicle: steriod suspending solution 112 % of control | dose: 135.0 mg/kg/injection, schedule: Q01DX015 (ip), vehicle: saline 92 % of control | dose: 200.0 mg/kg/injection, schedule: Q01DX001 (sc), vehicle: steriod suspending solution 112 % of control | dose: 200.0 mg/kg/injection, schedule: Q01DX015 (ip), vehicle: saline 92 % of control | dose: 400.0 mg/kg/injection, schedule: Q01DX001 (sc), vehicle: steriod suspending solution 97 % of control

O=S(=O)(c1ccccc1)C1C2CCC(O2)C1S(=O)(=O)c1ccccc1 (configuration not stated)
inactive: [1] 103 % of control | [2] 92 % of control | [3] 89 % of control

N#C/C(=C\c1ccncc1)c1cccc2ccccc12
inactive: [4] 114 % of control | [5] 96 % of control | dose: 400.0 mg/kg/injection, schedule: Q04DX003 (ip), vehicle: Klucel (hydroxypropylcellulose) (HPC) 97 % of control

C#CCN(C)Cc1ccccc1
inactive: [6] 94 % of control | [7] 89 % of control | [8] 87 % of control | [9] 103 % of control | dose: 200.0 mg/kg/injection, schedule: Q01DX009 (ip), vehicle: saline 98 % of control | [10] 103 % of control | [11] 97 % of control

COC1OC(CCl)C(OS(=O)(=O)c2ccc(C)cc2)C(OS(=O)(=O)c2ccc(C)cc2)C1OS(=O)(=O)c1ccc(C)cc1 (configuration not stated)
inactive: [1] 90 % of control | [2] 93 % of control | [3] 97 % of control

CCCCCCCCCCCCCCCCCCNC(=O)Nc1ccc(C(C)C)cc1
inactive: dose: 100.0 mg/kg/injection, schedule: Q01DX009 (ip), vehicle: Klucel (hydroxypropylcellulose) (HPC) 95 % of control | [4] 89 % of control | dose: 200.0 mg/kg/injection, schedule: Q01DX009 (ip), vehicle: Klucel (hydroxypropylcellulose) (HPC) 92 % of control | [5] 89 % of control | dose: 400.0 mg/kg/injection, schedule: Q01DX009 (ip), vehicle: Klucel (hydroxypropylcellulose) (HPC) 92 % of control

CCC[CH2][Sn]1([CH2]CCC)[S]CCOB(OCC[S][Sn]([CH2]CCC)([CH2]CCC)[S]CCOB2OCC[S][Sn]([CH2]CCC)([CH2]CCC)[S]CCO2)OCC[S]1
inactive: dose: 6.25 mg/kg/injection, schedule: Q01DX001 (ip), vehicle: Klucel (hydroxypropylcellulose) (HPC) 100 % of control | dose: 12.5 mg/kg/injection, schedule: Q01DX001 (ip), vehicle: Klucel (hydroxypropylcellulose) (HPC) 89 % of control | dose: 25.0 mg/kg/injection, schedule: Q01DX001 (ip), vehicle: Klucel (hydroxypropylcellulose) (HPC) 112 % of control

CSc1nc2nc(Cl)c(Cl)nc2[nH]1
inactive: dose: 12.5 mg/kg/injection, schedule: Q01DX009 (ip), vehicle: saline 105 % of control | [6] 102 % of control and 104 % of control | [7] 102 % of control | [8] 98 % of control | [9] 97 % of control | [10] 98 % of control | [11] 108 % of control

CCOC(=O)Nc1cc(NCC(O)CN(C)c2ccc(Cl)cc2)c([N+](=O)[O-])c(N)n1 (configuration not stated)
inactive: dose: 100.0 mg/kg/injection, schedule: Q01DX001 (ip), vehicle: saline with Tween-80 92 % of control | dose: 200.0 mg/kg/injection, schedule: Q01DX001 (ip), vehicle: saline with Tween-80 86 % of control | dose: 400.0 mg/kg/injection, schedule: Q01DX001 (ip), vehicle: saline with Tween-80 89 % of control

CN(C(=O)CCCCl)c1cc([N+](=O)[O-])ccc1OCc1ccccc1
inactive: dose: 75.0 mg/kg/injection, schedule: Q01DX001 (ip), vehicle: saline 103 % of control | dose: 150.0 mg/kg/injection, schedule: Q01DX001 (ip), vehicle: saline 104 % of control | dose: 300.0 mg/kg/injection, schedule: Q01DX001 (ip), vehicle: saline 103 % of control

c1cc[c]([Sn]([c]2ccccc2)([c]2ccccc2)[CH]2CCCCC2)cc1
inactive: [9] 89 % of control | [10] 93 % of control | [11] 89 % of control

O=C(/C=C/c1ccccc1)Nc1ccc2ccccc2c1
inactive: [12] 107 % of control and 108 % of control | dose: 100.0 mg/kg/injection, schedule: Q04DX002 (ip), vehicle: saline with Tween-80 102 % of control and 114 % of control | dose: 100.0 mg/kg/injection, schedule: Q04DX003 (ip), vehicle: saline with Tween-80 92 % of control | [13] 96 % of control and 108 % of control | dose: 200.0 mg/kg/injection, schedule: Q04DX002 (ip), vehicle: saline with Tween-80 96 % of control and 102 % of control | dose: 200.0 mg/kg/injection, schedule: Q04DX003 (ip), vehicle: saline with Tween-80 100 % of control | [14] 94 % of control and 101 % of control | dose: 400.0 mg/kg/injection, schedule: Q04DX002 (ip), vehicle: saline with Tween-80 93 % of control and 107 % of control | dose: 400.0 mg/kg/injection, schedule: Q04DX003 (ip), vehicle: saline with Tween-80 101 % of control

CC(=O)Nc1ccc(C(C)(C)c2ccc([N+](=O)[O-])cc2)cc1[N+](=O)[O-]
inactive: dose: 50.0 mg/kg/injection, schedule: Q01DX001 (ip), vehicle: other 98 % of control | dose: 100.0 mg/kg/injection, schedule: Q01DX001 (ip), vehicle: other 104 % of control | dose: 400.0 mg/kg/injection, schedule: Q01DX001 (ip), vehicle: other 93 % of control

Cc1cc(=O)[nH]c2ccc(Cc3ccc(N)cc3)cc12
inactive: dose: 100.0 mg/kg/injection, schedule: Q01DX001 (ip), vehicle: carboxymethylcellulose (CMC) 95 % of control | dose: 200.0 mg/kg/injection, schedule: Q01DX001 (ip), vehicle: carboxymethylcellulose (CMC) 96 % of control | dose: 400.0 mg/kg/injection, schedule: Q01DX001 (ip), vehicle: carboxymethylcellulose (CMC) 98 % of control

O=C(Nc1ccccc1F)Oc1cccc2ccccc12
inactive: [12] 113 % of control | [13] 109 % of control | [14] 87 % of control

CC(=O)c1cc(S(=O)(=O)c2cc(C(C)=O)c(O)cc2OCc2ccccc2)c(OCc2ccccc2)cc1O
inactive: dose: 100.0 mg/kg/injection, schedule: Q04DX002 (ip), vehicle: carboxymethylcellulose (CMC) 103 % of control | dose: 200.0 mg/kg/injection, schedule: Q04DX002 (ip), vehicle: carboxymethylcellulose (CMC) 92 % of control | dose: 400.0 mg/kg/injection, schedule: Q04DX002 (ip), vehicle: carboxymethylcellulose (CMC) 88 % of control

O=C1C(=O)c2ccccc2-c2ccccc21.O=C1C(=O)c2ccccc2-c2ccccc21.[Hg]
inactive: dose: 6.25 mg/kg/injection, schedule: Q04DX003 (ip), vehicle: saline with Tween-80 95 % of control

O=C(O)c1cccnc1.[Cu+2]
inactive: dose: 9.5 mg/kg/injection, schedule: Q01DX001 (ip), vehicle: other 97 % of control | dose: 19.0 mg/kg/injection, schedule: Q01DX001 (ip), vehicle: other 97 % of control | dose: 38.0 mg/kg/injection, schedule: Q01DX001 (ip), vehicle: other 100 % of control

O=c1[nH]nc(CC(Br)c2ccccc2)o1 (configuration not stated)
inactive: dose: 100.0 mg/kg/injection, schedule: Q01DX001 (ip), vehicle: saline 91 % of control | [9] 103 % of control | dose: 200.0 mg/kg/injection, schedule: Q01DX001 (ip), vehicle: saline 90 % of control | [10] 93 % of control | dose: 400.0 mg/kg/injection, schedule: Q01DX001 (ip), vehicle: saline 99 % of control | [11] 105 % of control

N=C(N)SCc1ccc(Cl)cc1Cl
inactive: dose: 25.0 mg/kg/injection, schedule: Q01DX009 (ip), vehicle: saline with Tween-80 100 % of control | dose: 50.0 mg/kg/injection, schedule: Q01DX009 (ip), vehicle: saline with Tween-80 96 % of control | [12] 98 % of control | [1] 96 % of control | [2] 89 % of control | [3] 96 % of control

CCCCCCCCCCCCCC(=O)OCCC(C)C
inactive: dose: 222.0 mg/kg/injection, schedule: Q01DX Z (ip), vehicle: saline 105 % of control | dose: 333.0 mg/kg/injection, schedule: Q01DX Z (ip), vehicle: saline 95 % of control | dose: 500.0 mg/kg/injection, schedule: Q01DX Z (ip), vehicle: saline 102 % of control
